Measurements taken from patent US20240343699A1, “DERIVATIVES OF SUBSTITUTED MORPHOLINES AND USES THEREOF” (Supernus Pharmaceuticals, Inc., priority 2023, published 2024).
Values joined by “and” are separate entries in the source; they are usually repeats but may differ in a detail not shown here. Equal entries are not always repeated. Where two headings read alike, the source gives them in different places.

Tests used:
behavioral signature = experiment: SmartCube phenotypic screening (class/subclass and DRFA similarity analysis); type: in vivo, male C57/B16 mice; conditions: for Subclass signature: COMPOUND A 30-120 mg/kg, COMPOUND B 90 and 120 mg/kg PO; for proximity to donepezil / proximity to thioperamide: DRFA dose by dose, maximum (COMPOUND A: 90 and 120 mg/kg)
Procedure: A study was conducted to evaluate the CNS-like efficacy of novel test compounds using the SmartCube® System.
Animals. Male C57/B16 mice from Taconic Laboratories (Germantown, NY) were used. Upon receipt, mice were group-housed in OPTIMice® ventilated cages with 4 mice per cage. Mice were acclimated to the colony room for at least one week prior to test, and subsequently tested at approximately 8-9 weeks of age. All animals were examined, handled, and weighed prior to initiation of the study to assure adequate health and suitability and to minimize nonspecific stress associated with manipulation. During the course of the study, 12/12 light/dark cycles were maintained. The room temperature was 20-23° C. with a relative humidity maintained between 30-70%. Chow and water were provided ad libitum for the duration of the study.
Test compounds. All compounds were administered orally at a dose volume of 10 mL/kg, 20 minutes prior to testing. Formulations were prepared fresh on day of testing and dosing was completed within one hour of formulation. Compounds were prepared according to the table below. Twelve mice were used in each treatment group:
SmartCube®. The SmartCube® system is designed to and can successfully measure numerous spontaneous behaviors and response to challenges in the same testing environment. The hardware includes force sensors and a number of aversive stimuli to elicit behavior. Three high-resolution video cameras provide constant 3D view of the mouse in the SmartCube® apparatus (SC) throughout the entire testing period. During the 45-minute test session the mice are exposed to a sequence of challenges. The cubes are cleaned between each run.
Digital videos of the subjects were processed through computer segmentation algorithms to fit geometrical models to each mouse frame image. The resulting fitted parameters were then analyzed using behavioral classifier algorithms to extract behavioral states, such as rearing, locomotion, and immobility. The data obtained in this way was used to define a drug signature for PGI's known reference compounds and establish a therapeutic class signature against which a test sample can be compared.
The data mining effort utilizes several analytical methods including Bayesian probabilistic density models and Decision trees. The algorithms consider ˜2,600 measures including frequency and duration of behavioral states such as grooming, rearing, etc., and many other features obtained during the test session.
Two major types of analyses are routinely conducted: Class and subclass.
Each reference drug was tested at multiple doses appropriate for that drug in mice.
Multiple analyses of the data were performed to quantitatively produce independent predictions of drug class, and drug subclass. The behavioral signatures of the test drugs were evaluated using these classifiers to predict potential therapeutic utility.
The results for the class and subclass analyses are presented as standardized bar charts with percentages that sum to 100 for each dose.
Similarity Analysis Using “Clouds Framework”. The outcome from SmartCube® is a large set of features (behavioral parameters) that can be used for various analyses. […] Therefore, we formed statistically independent combinations of the original features (further referred to as de-correlated features). Each de-correlated feature extracted information from the whole cluster of the original features, so the new feature space would have lower dimensionality. Next, we applied a proprietary feature ranking algorithm to score each feature for its discrimination power (ability to separate the two groups, e.g. vehicle from treatment). Ranking is an important part of our analyses because it weighs each feature change by its relevance. We applied a feature ranking algorithm, derived from support vector in the support vector machine learning method, to rank each feature.

[1] = Metabolic stability in human liver S9; type: in vitro ADME; conditions: for half-life at 1 μM / microsomal CLint at 1 μM: pH 7.2
Procedure: Incubation Buffer (PBK): 50 mM potassium phosphate buffer was prepared from 1 M potassium phosphate buffer, pH 7.2. […] The dilution of […] was prepared by 90% methanol/10% DMSO, then 10 μM working solutions were prepared by diluting the 0.1 mM intermediates with 50 mM PBK. […] Prior to use, the stock solutions were brought to room temperature and thoroughly mixed. […] Cofactors Solutions: the mixture of cofactors solution was made at 10 mM of NADPH and 10 mM of UDPGA in PBK buffer.
The incubation was carried out in 96-well plates. The liver S9 working solutions were added to 96-well plates (80 μL/well) in duplicate. […] Reaction was initiated by adding cofactor mixture 10 μL/well. The plates were incubated at 37° C. in a water bath with shaking. […] The final organic solvent content in the incubation was ≤1%.
At specified time points, i.e., 5, 10, 20, 30 and 60 minutes, NCF60 (without adding NADPH (Nicotinamide-adenine dinucleotide phosphate, reduced form) and UDPGA (Uridine 5′-diphosphoglucuronic acid trisodium salt) replaced with PBK buffer reaction was stopped by adding three volumes of stop solution. The time zero (To) samples were prepared by adding three volumes of stop solution to liver S9 samples, followed by addition of test article or control, and cofactor mixture solution 10 μL/well.
Subsequently, 100 μL of supernatant.
Positive controls: 7-ethoxycoumarin and 7-hydroxycoumarin.

[2] = Cellular and nuclear receptor functional assays; type: cell-based; conditions: human recombinant (CHO cells); for Kb: apparent dissociation constant, modified Cheng Prusoff equation, read-out: kB, 5-HT2B(h) (antagonist effect); for IC50: serotonin (30 nM), IP1, HTRF, read-out: IC50, 5-HT2B(h) (antagonist effect)
Procedure: A study was conducted to test 5 compounds in cellular and nuclear receptor functional and enzyme and uptake assays.
The results are expressed as a percent of control agonist response or inverse agonist response and as a percent inhibition of control agonist response
The EC50 values (concentration producing a half-maximal response) and IC50 values (concentration causing a half-maximal inhibition of the control agonist response) were determined by non-linear regression analysis of the concentration-response curves generated with mean replicate values using Hill equation curve fitting […]
where Y=response, A=left asymptote of the curve, D=right asymptote of the curve, C=compound concentration, and C50=EC50 or IC50, and nH=slope factor. This analysis was performed using software developed at Cerep (Hill software) and validated by comparison with data generated by the commercial software SigmaPlot® 4.0 for Windows® (© 1997 by SPSS Inc.).
For the antagonists, the apparent dissociation constants (KB) were calculated using the modified Cheng Prusoff equation where A=concentration of reference agonist in the assay, and EC50A=EC50 value of the reference agonist.
In Vitro Pharmacology. Results showing an inhibition (or stimulation for assays run in basal conditions) higher than 50% were considered to represent significant effects of the test compounds. Results showing an inhibition (or stimulation) between 25% and 50% are indicative of weak to moderate effects. Results showing an inhibition (or stimulation) lower than 25% were not considered significant and mostly attributable to variability of the signal around the control level.

[3] = human liver S9, 1 μM, NCF60 (no cofactors, 60 min)
[4] = human liver S9, 1 μM, read-out: CLint(LS9)
[5] = 1 μM in Human liver S9 fractions
[6] = 1 μM in Human liver S9 fractions, read-out: CLint(mic.)

Row | Structure (SMILES) | Subclass signature (behavioral signature) | proximity to donepezil (behavioral signature) | % Remaining ([1]; human liver S9, 1 μM, 0 min) [%] | Analyte Peak area/IS Peak area Mean × 100 (n = 2) ([1]; human liver S9, 1 μM, 0 min) | % Remaining ([1]; human liver S9, 1 μM, 5 min) [%] | Analyte Peak area/IS Peak area Mean × 100 (n = 2) ([1]; human liver S9, 1 μM, 5 min) | % Remaining ([1]; human liver S9, 1 μM, 10 min) [%] | Analyte Peak area/IS Peak area Mean × 100 (n = 2) ([1]; human liver S9, 1 μM, 10 min) | % Remaining ([1]; human liver S9, 1 μM, 20 min) [%] | Analyte Peak area/IS Peak area Mean × 100 (n = 2) ([1]; human liver S9, 1 μM, 20 min) | % Remaining ([1]; human liver S9, 1 μM, 30 min) [%] | Analyte Peak area/IS Peak area Mean × 100 (n = 2) ([1]; human liver S9, 1 μM, 30 min) | % Remaining ([1]; human liver S9, 1 μM, 60 min) | Analyte Peak area/IS Peak area Mean × 100 (n = 2) ([1]; human liver S9, 1 μM, 60 min) | % Remaining [1, 3] [%] | Analyte Peak area/IS Peak area Mean × 100 (n = 2) [1, 3] | half-life at 1 μM ([1]; human liver S9, 1 μM) [min] | microsomal CLint at 1 μM [1, 4] [µL/min/mg] | Kb [2] [µM] | IC50 [2] [µM] | also measured
1 | CCOc1ccccc1OC[C@@H]1CN(C(=O)OC(C)OC(=O)[C@@H](N)C(C)C)CCO1 (stereo partly drawn) [COMPOUND A] | predominantly cognitive enhancer-like | > 65% | 100 | 11.7 | 1.4 | 0.164 | 1.2 | 0.143 | 0.3 | 0.039 | 0.2 | 0.021 | 0.01% and 0.0% | 0.001 | 0.1 | 0.008 | 5.76 | 241 | 1 | 6.9 | behavioral activity (class/subclass analysis) (behavioral signature; 30-120 mg/kg PO): high behavioral activity; proximity to thioperamide (behavioral signature): > 75%
2 | CCOc1ccccc1OC[C@@H]1CN(C(=O)OC(OC(=O)[C@@H](N)C(C)C)C(C)C)CCO1 (stereo partly drawn) [COMPOUND B] | predominantly cognitive enhancer-like | – | 100 | 8.22 | 14 | 1.12 | 12 | 0.973 | 4.2 | 0.342 | 1.6 | 0.131 | 0.24% and 0.2% | 0.020 | 1.2 | 0.099 | 7.74 | 179 | 2.1 | 14 | behavioral activity (class/subclass analysis) (behavioral signature; 90 and 120 mg/kg PO): high behavioral activity
3 | CCOc1ccccc1OC[C@@H]1CN(C(=O)OC(OC(=O)[C@H](N)C(C)C)C(C)C)CCO1 (stereo partly drawn) [COMPOUND C] | – | around 100% | 100 | 10.6 | 7.7 | 0.808 | 4.2 | 0.446 | 2.8 | 0.297 | 1.5 | 0.160 | 0.19% and 0.2% | 0.020 | 0.6 | 0.061 | 8.12 | 171 | 2 | 13 | behavioral activity (class/subclass analysis) (behavioral signature; 60-150 mg/kg PO): high behavioral activity; proximity to thioperamide (behavioral signature): around 100%; proximity to amphetamine (behavioral signature; DRFA, active doses): > 75%; proximity to atomoxetine (behavioral signature; DRFA, active doses): > 75%; class signature (behavioral signature; highest dose tested (150 mg/kg PO)): predominant antipsychotic-like signature
4 | CCOc1ccccc1OCC1CN(C(=O)OC(C)OC(=O)[C@H](N)C(C)C)CCO1 (stereo partly drawn) [COMPOUND D] | – | – | – | – | – | – | – | – | – | – | – | – | – | – | – | – | – | – | 0.75 | 4.9 | behavioral activity (class/subclass analysis) (behavioral signature; 40 and 80 mg/kg PO): dose dependent increase in activity; % Remaining at 60 min [1, 5]: 0.00%; half-life at 1 μM [1, 5]: 1.86 min; microsomal CLint at 1 μM [1, 6]: 746 µL/min/mg
5 | CCOc1ccccc1OCC1CN(C(=O)OC(OC(=O)[C@@H](N)C(C)C)C(C)C)CCO1 (stereo partly drawn) [COMPOUND E] | – | – | – | – | – | – | – | – | – | – | – | – | – | – | – | – | – | – | 0.63 | 4.2 | behavioral activity (class/subclass analysis) (behavioral signature; 40 and 80 mg/kg PO): moderate activity; % Remaining at 60 min [1, 5]: 0.76%; half-life at 1 μM [1, 5]: 8.9 min; microsomal CLint at 1 μM [1, 6]: 155 µL/min/mg
